Test results: patent US20260103686A1, “MICROBIAL STRAIN, PROTEIN, AND METHOD FOR PRODUCING GALLIC ACID USING MICROBIAL STRAIN OR PROTEIN” (UNIVERSITY OF TSUKUBA, priority 2022, published 2026)
Like-named read-outs stand apart in the source and are kept apart here.

Columns and labels:
[1] = molecular target: Pseudomonas aeruginosa-derived PobA (PaPobA), p-hydroxybenzoate hydroxylase, wild type, SEQ ID NO: 28 (Pseudomonas aeruginosa, UniProt P20586); assay: Reaction kinetic analysis of PaPobA (comparison); conditions: PCA substrate (2 mM), 200 µM NADPH, 10 µM FAD, pH 7.9, 25° C., 340 nm
Sequence of Pseudomonas aeruginosa-derived PobA (PaPobA), p-hydroxybenzoate hydroxylase, wild type, SEQ ID NO: 28 (P20586 whole entry): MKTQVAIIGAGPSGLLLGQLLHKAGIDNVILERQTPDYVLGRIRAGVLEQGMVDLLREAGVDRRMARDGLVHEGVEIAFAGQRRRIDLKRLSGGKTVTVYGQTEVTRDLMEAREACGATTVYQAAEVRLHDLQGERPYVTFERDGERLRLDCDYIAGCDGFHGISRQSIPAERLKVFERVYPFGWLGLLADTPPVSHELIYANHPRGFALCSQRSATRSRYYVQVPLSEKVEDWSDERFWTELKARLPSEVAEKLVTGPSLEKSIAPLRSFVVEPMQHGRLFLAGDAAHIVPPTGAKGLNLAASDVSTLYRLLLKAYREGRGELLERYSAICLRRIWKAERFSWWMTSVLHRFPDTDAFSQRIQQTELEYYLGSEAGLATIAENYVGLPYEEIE
Text: A polynucleotide encoding Pseudomonas aeruginosa-derived PobA was artificially synthesized based on the gene sequence information of Pseudomonas aeruginosa-derived PobA (PaPobA) (SEQ ID NO: 14).

[2] = molecular target: Hylemonella gracilis-derived PobA (HgPobA, SEQ ID NO: 20) variant HgPobA-TY, T302A/Y393F (gene SEQ ID NO: 37) (Hylemonella gracilis, UniProt F3KT36, T302A/Y393F); assay: Reaction kinetic analysis of HgPobA-TY
Sequence of Hylemonella gracilis-derived PobA (HgPobA, SEQ ID NO: 20) variant HgPobA-TY, T302A/Y393F (gene SEQ ID NO: 37) (F3KT36 1-402 T302A/Y393F): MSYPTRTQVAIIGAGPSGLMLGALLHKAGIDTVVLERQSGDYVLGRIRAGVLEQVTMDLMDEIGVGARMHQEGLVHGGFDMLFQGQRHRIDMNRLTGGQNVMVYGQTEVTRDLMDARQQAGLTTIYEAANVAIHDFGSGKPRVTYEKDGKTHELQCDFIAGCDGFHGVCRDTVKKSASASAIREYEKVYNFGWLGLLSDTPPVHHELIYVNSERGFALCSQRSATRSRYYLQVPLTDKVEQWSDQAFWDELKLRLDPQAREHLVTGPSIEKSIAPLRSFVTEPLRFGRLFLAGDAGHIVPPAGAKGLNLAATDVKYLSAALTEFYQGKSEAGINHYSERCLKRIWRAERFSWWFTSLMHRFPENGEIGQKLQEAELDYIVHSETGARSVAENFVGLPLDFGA
Protocol: The cell-free extracts were subjected to a HisTrap HP column (GE healthcare) which was equilibrated with an equilibration buffer (20 mM Tris-HCl buffer (pH 7.9), 20 mM imidazole), and then fractions eluted with an eluent (20 mM Tris-HCl buffer (pH 7.9), 500 mM imidazole) were collected.
The protein concentrations of the purified enzyme liquids were measured using Bio-Rad Protein Assay Dye Reagent Concentrate (Bio-Rad, USA), and the purified enzyme liquids were diluted to 1 of mg/mL with a buffer.

[3] = system: Polaromonas sp.-derived PobA (PoPobA), protocatechuic acid 5-hydroxylase, wild type, SEQ ID NO: 22; assay: Reaction kinetic analysis of PoPobA; assay type: biochemical; conditions: 200 µM NADPH, 10 µM FAD, pH 7.9, 25° C., 340 nm
Text: By the same procedures, a target pRSF-PoPobA plasmid was obtained based on the gene sequence information of Polaromonas sp.-derived PobA (PoPobA) (SEQ ID NO: 7). The base sequences of primers 5 and 6 used are shown below.

[4] = system: Hydrogenophaga sp.-derived PobA (HyPobA), protocatechuic acid 5-hydroxylase, wild type, SEQ ID NO: 21; assay: Reaction kinetic analysis of HyPobA; assay type: biochemical; conditions: 200 µM NADPH, 10 µM FAD, pH 7.9, 25° C., 340 nm
Text: By the same procedures, a target […] plasmid was obtained based on the gene sequence information of Hydrogenophaga sp.-derived PobA (HyPobA) (SEQ ID NO: 4). The base sequences of primers 3 and 4 used are shown below.

[5] = PCA substrate, read-out: Km^app (PCA)
[6] = read-out: Km^app (pHBA), pHBA substrate

| Structure (SMILES) | kcat^app (PCA) [1] | kcat value for PCA relative to PaPobA ([2]; HgPobA-TY versus PaPobA) | kcat^app (PCA) ([2]; PCA substrate (2 mM), 200 µM NADPH, 10 µM FAD, pH 7.9, 25° C., 340 nm) | kcat^app (PCA) ([3]; PCA substrate (2 mM)) | Km [3, 5] | kcat^app (PCA) ([4]; PCA substrate (2 mM)) | Km [4, 5] | Km [3, 6] | Km [4, 6] |
| --- | --- | --- | --- | --- | --- | --- | --- | --- | --- |
| O=C(O)c1ccc(O)c(O)c1 [PCA, protocatechuic acid] | 0.50 s⁻¹ | 3.6 times | 1.8 s⁻¹ | 2.7 s⁻¹ | 920 µM | 6.6 s⁻¹ | 570 µM | – | – |
| O=C(O)c1ccc(O)cc1 [pHBA, p-hydroxybenzoic acid] | – | – | – | – | – | – | – | 340 µM | 56 µM |
